Measurements reported in ChEMBL document CHEMBL1143178, “Synthesis and analysis of stabilizing ligands for FKBP-derived destabilizing domains” (Bioorg Med Chem Lett, 2008).

Legend:
[1] = Binding affinity to human FKBP F36V mutant
[2] = Binding affinity to human FKBP F36V/L106P mutant-YFP fusion protein expressed in NIH3T3 cells after 24 hrs; type: cell-based

Row | Kd [1] | EC50 [2] | SMILES
1 | 2.4 nM | 100 nM | CC[C@H](C(=O)N1CCCC[C@H]1C(=O)O[C@H](CCc1ccc(OC)c(OC)c1)c1cccc(OCCN2CCOCC2)c1)c1cc(OC)c(OC)c(OC)c1
2 | 29 nM | 1200 nM | CCC(CC)NC(=O)N1CCCC[C@H]1C(=O)O[C@H](CCc1ccc(OC)c(OC)c1)c1cccc(OCCN2CCOCC2)c1
